The target of one assay is T1, BRAF V600E (Homo sapiens, UniProt P15056+Q96SW2, V600E).
T1 construct: knock-in of the HiBiT tag to the endogenous BRAF V600E locus; host or cells: A375.10 (A375 clonal line, CRISPR HiBiT knock-in at the endogenous BRAF V600E locus)
The experiment in a line: BRAF V600E HiBiT Degradation Assay. The class given is cell-based. The note with it: A375.10 cells, BRAF V600E. In a few lines: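 Endogenous HiBiT knock-in on BRAF V600E in A375 cells (clone A375.10); 11-point half-log series, top 10 μM, 2, 6 or 24 h at 37° C. Lytic HiBiT luminescence, background-subtracted, normalized to DMSO; 4-parameter fit gives DC50, Emax (residual protein) and IP (inflection point).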

For the next assay, the system named is A375-NRAS^Q61K cells. Kind of assay: CTGlo Cell Viability Assay, A375-NRAS^Q61K (A375.11) cells, 96 hours. The class given is cell-based, human. The note with it: Homo sapiens, 96 h, A375.11 (A375-NRAS^Q61K) cells; for Emax: lowest % viability achieved. The method in brief: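 A375 cells carrying BRAF V600E and NRAS Q61K were seeded at 250 cells/well with a 10-point half-log dose series (max 10 μM final). After 96 h at 37 °C, viability was read as ATP luminescence (CellTiter-Glo), background-subtracted and normalized to DMSO (100%). GI50 from 4-parameter fit; Emax is the lowest % viability.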

Where [1] appears, read: 2 hours, residual protein remaining, read-out: HiBiT-Degradation A375.10 BRAF 2 hours Emax.
[2] abbreviates: 2 hours, inflection point, read-out: HiBiT-Degradation A375.10 BRAF 2 hours IP.
Where [3] appears, read: 2 hours, read-out: HiBiT-Degradation A375.10 BRAF 2 hours DC50.
The mark [4] stands for this setting: HiBiT, 24 hours, read-out: HiBiT-Degradation A375.10 BRAF 24 hours DC50.
[5] abbreviates: HiBiT, 24 hours, read-out: HiBiT-Degradation A375.10 BRAF 24 hours Emax.
[6] abbreviates: HiBiT, 24 hours, read-out: HiBiT-Degradation A375.10 BRAF 24 hours IP.

Where two headings read alike, the source gives them in different places. Bounds are passed on as bounds.

T1 sequence (P15056 whole entry V600E): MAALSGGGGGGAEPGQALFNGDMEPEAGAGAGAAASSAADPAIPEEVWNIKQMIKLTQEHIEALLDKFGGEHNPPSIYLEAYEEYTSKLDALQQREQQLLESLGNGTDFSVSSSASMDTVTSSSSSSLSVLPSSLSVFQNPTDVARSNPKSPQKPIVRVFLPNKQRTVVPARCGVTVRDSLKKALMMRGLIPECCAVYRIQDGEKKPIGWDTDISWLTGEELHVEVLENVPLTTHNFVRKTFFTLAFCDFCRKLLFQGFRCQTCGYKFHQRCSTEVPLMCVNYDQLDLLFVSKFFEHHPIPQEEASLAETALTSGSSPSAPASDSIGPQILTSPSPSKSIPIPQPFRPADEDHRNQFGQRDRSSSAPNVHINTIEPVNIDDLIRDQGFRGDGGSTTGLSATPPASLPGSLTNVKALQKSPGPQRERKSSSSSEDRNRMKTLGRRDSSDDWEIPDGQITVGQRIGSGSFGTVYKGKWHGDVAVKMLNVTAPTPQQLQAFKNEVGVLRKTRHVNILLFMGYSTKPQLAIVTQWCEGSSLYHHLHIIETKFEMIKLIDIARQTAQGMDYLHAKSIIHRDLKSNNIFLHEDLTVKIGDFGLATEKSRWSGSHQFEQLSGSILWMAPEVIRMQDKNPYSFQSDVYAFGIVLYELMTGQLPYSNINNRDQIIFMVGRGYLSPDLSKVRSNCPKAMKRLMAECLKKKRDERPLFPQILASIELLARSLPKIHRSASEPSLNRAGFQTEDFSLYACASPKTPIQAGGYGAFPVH
T1 sequence (Q96SW2 whole entry): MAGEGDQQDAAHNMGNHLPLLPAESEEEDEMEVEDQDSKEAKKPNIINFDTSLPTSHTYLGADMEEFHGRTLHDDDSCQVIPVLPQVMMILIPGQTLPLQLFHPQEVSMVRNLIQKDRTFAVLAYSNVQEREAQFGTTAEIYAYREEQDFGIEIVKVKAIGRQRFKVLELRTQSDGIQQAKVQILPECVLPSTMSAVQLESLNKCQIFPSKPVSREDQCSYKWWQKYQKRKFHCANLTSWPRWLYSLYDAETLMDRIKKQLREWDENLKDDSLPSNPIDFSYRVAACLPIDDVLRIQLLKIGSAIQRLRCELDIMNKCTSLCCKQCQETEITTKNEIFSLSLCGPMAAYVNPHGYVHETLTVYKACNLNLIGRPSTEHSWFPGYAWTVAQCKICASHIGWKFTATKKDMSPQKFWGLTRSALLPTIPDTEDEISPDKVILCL
T1 sequence (Q16531 whole entry partner): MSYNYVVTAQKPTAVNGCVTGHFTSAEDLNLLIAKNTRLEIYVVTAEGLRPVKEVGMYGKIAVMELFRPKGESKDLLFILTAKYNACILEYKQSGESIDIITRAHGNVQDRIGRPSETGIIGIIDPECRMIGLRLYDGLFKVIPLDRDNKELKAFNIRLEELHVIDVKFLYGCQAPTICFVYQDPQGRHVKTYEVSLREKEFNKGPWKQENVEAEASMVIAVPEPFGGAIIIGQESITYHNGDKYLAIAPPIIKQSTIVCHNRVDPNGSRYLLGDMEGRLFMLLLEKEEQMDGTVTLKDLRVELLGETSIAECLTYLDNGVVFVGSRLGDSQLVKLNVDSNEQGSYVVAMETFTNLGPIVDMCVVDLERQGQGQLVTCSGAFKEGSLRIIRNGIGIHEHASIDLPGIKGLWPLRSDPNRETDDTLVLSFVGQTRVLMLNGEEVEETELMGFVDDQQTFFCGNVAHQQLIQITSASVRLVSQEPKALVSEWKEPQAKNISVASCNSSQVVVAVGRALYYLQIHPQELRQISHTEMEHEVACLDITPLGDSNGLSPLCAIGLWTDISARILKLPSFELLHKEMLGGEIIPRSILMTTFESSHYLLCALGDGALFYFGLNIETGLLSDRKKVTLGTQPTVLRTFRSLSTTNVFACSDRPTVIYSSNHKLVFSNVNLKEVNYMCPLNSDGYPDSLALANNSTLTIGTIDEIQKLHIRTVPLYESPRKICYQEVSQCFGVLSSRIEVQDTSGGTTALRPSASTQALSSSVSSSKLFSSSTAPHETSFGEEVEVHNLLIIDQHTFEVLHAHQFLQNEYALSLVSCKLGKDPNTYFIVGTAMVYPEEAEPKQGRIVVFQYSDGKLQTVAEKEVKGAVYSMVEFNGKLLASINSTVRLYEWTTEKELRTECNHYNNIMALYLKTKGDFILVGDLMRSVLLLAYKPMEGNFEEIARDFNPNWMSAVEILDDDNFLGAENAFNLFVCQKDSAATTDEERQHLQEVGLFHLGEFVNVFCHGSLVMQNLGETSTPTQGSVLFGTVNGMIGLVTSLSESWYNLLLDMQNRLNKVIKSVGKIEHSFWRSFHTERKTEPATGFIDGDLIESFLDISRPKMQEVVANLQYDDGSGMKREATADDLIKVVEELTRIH

In the case of `Cn1nc(N2CCC(=O)NC2=O)c2cc(F)c(N3CC4(CC(N5CCC6(CC5)CC(c5cnc7ccc(Oc8c(F)ccc(NS(=O)(=O)C9CCCC9)c8C#N)cc7n5)C6)C4)C3)cc21` [Compound 283, N-[2-cyano-3-[3-[7-[2-[3-(2,4-dioxohexahydropyrimidin-1-yl)-5-fluoro-1-methyl-indazol-6-yl]-2-azaspiro[3.3]heptan-6-yl]-7-azaspiro[3.5]nonan-2-yl]quinoxalin-6-yl]oxy-4-fluoro-phenyl]cyclopentanesulfonamide], the Emax on BRAF V600E (setting [1]) was less than 50%; in the assay on A375-NRAS^Q61K cells it was 50 to 90%. Besides, the DC50 at BRAF V600E (read-out: HiBiT-Degradation A375.10 BRAF 2 hours DC50, 2 hours) was less than 1000 nM; on BRAF V600E (read-out: HiBiT-Degradation A375.10 BRAF 2 hours IP, 2 hours, inflection point), less than 1000 nM. For the same compound, in the assay with A375-NRAS^Q61K cells, the GI50 (as a rule, the concentration at which growth is held to half of that of the control) is less than 1000 nM.
For the compound `CCN(C)S(=O)(=O)Nc1ccc(F)c(Oc2ccc3ncn(C4CC5(C4)CN(CC4CCN(c6cc7c(cc6F)c(N6CCC(=O)NC6=O)nn7C)CC4)C5)c(=O)c3c2)c1C#N` [Compound 296, 6-[2-cyano-3-[[ethyl(methyl)sulfamoyl]amino]-6-fluoro-phenoxy]-3-[2-[[1-[3-(2,4-dioxohexahydropyrimidin-1-yl)-5-fluoro-1-methyl-indazol-6-yl]-4-piperidyl]methyl]-2-azaspiro[3.3]heptan-6-yl]-4-oxo-quinazoline], the DC50 on BRAF V600E (setting [2]), at BRAF V600E (setting [3]), at BRAF V600E (setting [4]) and at BRAF V600E (setting [6]) was less than 1000 nM in each case. For the same compound, the Emax at BRAF V600E (setting [1]) is 50 to 90%; on BRAF V600E (setting [5]) it was less than 50%; in the assay with A375-NRAS^Q61K cells it was 50 to 90%. In the assay with A375-NRAS^Q61K cells, this compound came in with a concentration for 50% growth inhibition (GI50) of less than 1000 nM.
`CCN(C)S(=O)(=O)Nc1ccc(F)c(Oc2ccc3ncc(C4CC5(C4)CN(C4CC6(C4)CN(c4cc7c(cc4F)c(N4CCC(=O)NC4=O)nn7C)C6)C5)nc3c2)c1C#N` (stereo not shown) [Compound 303, 7-[2-cyano-3-[[ethyl(methyl)sulfamoyl]amino]-6-fluoro-phenoxy]-2-[2-[2-[3-(2,4-dioxohexahydropyrimidin-1-yl)-5-fluoro-1-methyl-indazol-6-yl]-2-azaspiro[3.3]heptan-6-yl]-2-azaspiro[3.3]heptan-6-yl]quinoxaline]: the DC50 at BRAF V600E (setting [2]) is less than 1000 nM; at BRAF V600E (setting [3]) it was 1000 to 10000 nM. Also, the Emax on BRAF V600E (setting [1]) and in the assay on A375-NRAS^Q61K cells was 50 to 90% in each case. Moreover, in the assay with A375-NRAS^Q61K cells, the GI50 is more than 10000 nM.
Consider `CCN(C)S(=O)(=O)Nc1ccc(F)c(C(=O)c2ccc3ncn(C4CC5(CCN(C6CC7(C6)CN(c6cc8c(cc6F)c(N6CCC(=O)NC6=O)nn8C)C7)CC5)C4)c(=O)c3c2)c1F` (stereo not shown) [Compound 304, 3-[7-[2-[3-(2,4-dioxohexahydropyrimidin-1-yl)-5-fluoro-1-methyl-indazol-6-yl]-2-azaspiro[3.3]heptan-6-yl]-7-azaspiro[3.5]nonan-2-yl]-6-[3-[[ethyl(methyl)sulfamoyl]amino]-2,6-difluoro-benzoyl]-4-oxo-quinazoline], for which the DC50 on BRAF V600E (setting [2]) was less than 1000 nM; at BRAF V600E (setting [3]), 1000 to 10000 nM; on BRAF V600E (setting [4]) it was less than 1000 nM; on BRAF V600E (setting [6]), less than 1000 nM. The Emax was 50 to 90% at BRAF V600E (setting [1]), less than 50% on BRAF V600E (setting [5]) and 50 to 90% with A375-NRAS^Q61K cells. Besides, the GI50 in the assay with A375-NRAS^Q61K cells fell in the range of 1000 to 10000 nM.
For the compound `CCN(C)S(=O)(=O)Nc1ccc(F)c(Oc2ccc3ncn(C4CC5(C4)CN(C4CC6(C4)CN(c4cc7c(cc4F)c(N4CCC(=O)NC4=O)nn7C)C6)C5)c(=O)c3c2)c1C#N` (stereo not shown) [Compound 305, 6-[2-cyano-3-[[ethyl(methyl)sulfamoyl]amino]-6-fluoro-phenoxy]-3-[2-[2-[3-(2,4-dioxohexahydropyrimidin-1-yl)-5-fluoro-1-methyl-indazol-6-yl]-2-azaspiro[3.3]heptan-6-yl]-2-azaspiro[3.3]heptan-6-yl]-4-oxo-quinazoline], the DC50 on BRAF V600E (setting [2]), at BRAF V600E (setting [3]), on BRAF V600E (setting [4]) and at BRAF V600E (setting [6]) was less than 1000 nM each time. The results for the Emax on BRAF V600E (setting [1]), on BRAF V600E (setting [5]) and with A375-NRAS^Q61K cells were less than 50%, less than 50% and 50 to 90%, respectively. In addition, the concentration for 50% growth inhibition (GI50) in the assay on A375-NRAS^Q61K cells was less than 1000 nM.
Turning to `CCN(C)S(=O)(=O)Nc1ccc(F)c(C(=O)c2ccc3ncn(C4CC5(C4)CN(C4CC6(C4)CN(c4cc7c(cc4F)c(N4CCC(=O)NC4=O)nn7C)C6)C5)c(=O)c3c2)c1F` (stereo not shown) [Compound 306, 3-[2-[2-[3-(2,4-dioxohexahydropyrimidin-1-yl)-5-fluoro-1-methyl-indazol-6-yl]-2-azaspiro[3.3]heptan-6-yl]-2-azaspiro[3.3]heptan-6-yl]-6-[3-[[ethyl(methyl)sulfamoyl]amino]-2,6-difluoro-benzoyl]-4-oxo-quinazoline], the DC50 on BRAF V600E (setting [2]) and at BRAF V600E (setting [3]) was less than 1000 nM throughout. The Emax at BRAF V600E (setting [1]) and with A375-NRAS^Q61K cells was 50 to 90% throughout. The GI50 with A375-NRAS^Q61K cells was more than 10000 nM.
On to `CCN(C)S(=O)(=O)Nc1ccc(F)c(Oc2ccc3ncn([C@H]4COC5(C4)CN(C4CCN(c6cc7c(cc6F)c(N6CCC(=O)NC6=O)nn7C)CC4)C5)c(=O)c3c2)c1C#N` [Compound 309, (7R)-7-[6-[2-cyano-3-[[ethyl(methyl)sulfamoyl]amino]-6-fluoro-phenoxy]-4-oxo-quinazolin-3-yl]-2-[1-[3-(2,4-dioxohexahydropyrimidin-1-yl)-5-fluoro-1-methyl-indazol-6-yl]-4-piperidyl]-5-oxa-2-azaspiro[3.4]octane], for which the DC50 was less than 1000 nM on BRAF V600E (setting [2]), more than 10000 nM at BRAF V600E (setting [3]), less than 1000 nM at BRAF V600E (setting [4]) and less than 1000 nM at BRAF V600E (setting [6]). Further, the Emax on BRAF V600E (setting [1]) is 50 to 90%; on BRAF V600E (setting [5]), less than 50%; with A375-NRAS^Q61K cells it was 50 to 90%. In addition, the GI50 in the assay with A375-NRAS^Q61K cells was more than 10000 nM.
Take `CCN(C)S(=O)(=O)Nc1ccc(F)c(Oc2ccc3ncn([C@H]4COC5(C4)CN(C4CC6(C4)CN(c4cc7c(cc4F)c(N4CCC(=O)NC4=O)nn7C)C6)C5)c(=O)c3c2)c1C#N` [Compound 310, (7R)-7-[6-[2-cyano-3-[[ethyl(methyl)sulfamoyl]amino]-6-fluoro-phenoxy]-4-oxo-quinazolin-3-yl]-2-[2-[3-(2,4-dioxohexahydropyrimidin-1-yl)-5-fluoro-1-methyl-indazol-6-yl]-2-azaspiro[3.3]heptan-6-yl]-5-oxa-2-azaspiro[3.4]octane]: the DC50 at BRAF V600E (setting [2]), on BRAF V600E (setting [3]), at BRAF V600E (setting [4]) and at BRAF V600E (setting [6]) was less than 1000 nM each time. Besides, the Emax on BRAF V600E (setting [1]) was less than 50%; at BRAF V600E (setting [5]), less than 50%; with A375-NRAS^Q61K cells, 50 to 90%. Besides, the GI50 with A375-NRAS^Q61K cells was 1000 to 10000 nM.
On to `CCN(C)S(=O)(=O)Nc1ccc(F)c(Oc2ccc3ncn([C@@H]4COC5(C4)CN(C4CC6(C4)CN(c4cc7c(cc4F)c(N4CCC(=O)NC4=O)nn7C)C6)C5)c(=O)c3c2)c1C#N` [Compound 311, (7S)-7-[6-[2-cyano-3-[[ethyl(methyl)sulfamoyl]amino]-6-fluoro-phenoxy]-4-oxo-quinazolin-3-yl]-2-[2-[3-(2,4-dioxohexahydropyrimidin-1-yl)-5-fluoro-1-methyl-indazol-6-yl]-2-azaspiro[3.3]heptan-6-yl]-5-oxa-2-azaspiro[3.4]octane], for which the DC50 at BRAF V600E (setting [2]) is less than 1000 nM; on BRAF V600E (setting [3]), 1000 to 10000 nM; at BRAF V600E (setting [4]), less than 1000 nM; at BRAF V600E (setting [6]), less than 1000 nM. The Emax is 50 to 90% at BRAF V600E (setting [1]), less than 50% at BRAF V600E (setting [5]) and 50 to 90% in the assay with A375-NRAS^Q61K cells. The GI50 in the assay on A375-NRAS^Q61K cells was in the range of 1000 to 10000 nM.
Consider `CCN(C)S(=O)(=O)Nc1ccc(F)c(Oc2ccc3ncn(C4CC5(C4)CN(CC4CN(c6cc7c(cc6F)c(N6CCC(=O)NC6=O)nn7C)C4)C5)c(=O)c3c2)c1C#N` [Compound 313], for which the DC50 at BRAF V600E (setting [2]), on BRAF V600E (setting [3]), at BRAF V600E (setting [4]) and at BRAF V600E (setting [6]) was less than 1000 nM throughout. In addition, the Emax on BRAF V600E (setting [1]) is 50 to 90%; at BRAF V600E (setting [5]), less than 50%; in the assay on A375-NRAS^Q61K cells, 50 to 90%. The same compound gave a GI50 with A375-NRAS^Q61K cells of less than 1000 nM.
As to `CCN(C)S(=O)(=O)Nc1ccc(F)c(Oc2ccc3ncn(C4CC5(C4)CN(C4CC6(CCN(c7cc8c(cc7F)c(N7CCC(=O)NC7=O)nn8C)CC6)C4)C5)c(=O)c3c2)c1C#N` (stereo not shown) [Compound 314, 6-[2-cyano-3-[[ethyl(methyl)sulfamoyl]amino]-6-fluoro-phenoxy]-3-[2-[7-[3-(2,4-dioxohexahydropyrimidin-1-yl)-5-fluoro-1-methyl-indazol-6-yl]-7-azaspiro[3.5]nonan-2-yl]-2-azaspiro[3.3]heptan-6-yl]-4-oxo-quinazoline], the DC50 on BRAF V600E (setting [2]), on BRAF V600E (setting [3]), on BRAF V600E (setting [4]) and on BRAF V600E (setting [6]) was less than 1000 nM throughout. Also, the figures for the Emax at BRAF V600E (setting [1]), at BRAF V600E (setting [5]) and in the assay with A375-NRAS^Q61K cells were less than 50%, less than 50% and 50 to 90%, respectively. Further, the GI50 with A375-NRAS^Q61K cells is less than 1000 nM.

For the origin of these results see patent publication US20260297060A1, “COMPOUNDS FOR THE DEGRADATION OF MUTANT BRAF” (C4 THERAPEUTICS, INC., priority 2023, published 2026).
